Test results published in patent US11767305B2, “Advantageous benzofuran compositions for mental disorders or enhancement” (Tactogen Inc, priority 2020, dated 2023).
Structures can show the parent of a compound that is named as a salt. Where two headings read alike, the source gives them in different places.

Columns and labels:
[1] = biological target: human 5-HT transporter (hSERT) (Homo sapiens (Human), UniProt P31645); test: Human serotonin transporter  assay ([3H]imipramine radioligand, CHO cells); format: binding; conditions: for IC50: 2 nM [3H]imipramine; for Ki: Cheng Prusoff equation
Description: Benzofuran derivatives were evaluated for inhibiting the human 5-HT transporter (hSERT) as expressed in CHO cells using an antagonist radioligand assay (Tatsumi, M. et al. (1999), Eur. J Pharmacol., 368: 277-283). […] Test compounds were assayed in three trials at […], and 0.94868 μM.

[2] = biological target: T1, serotonin (5-HT) transporter (SERT) (Rattus norvegicus (Rat), UniProt P31652); test: Rat synaptosome SERT [3H]5-HT release assay; conditions: 5 nM [3H]5-HT
[3] = biological target: T1, serotonin (5-HT) transporter (SERT); test: Rat synaptosome SERT [3H]5-HT uptake inhibition assay; conditions: 5 nM [3H]5-HT
[4] = biological target: 5-HT1BR (Homo sapiens (Human), UniProt P28222); test: 5-HT1BR cAMP secondary messenger agonist assay (HitHunter, CHO-K1); format: cell-based
From the text: The 5-HT1BR cAMP secondary messenger agonist assay used a panel of CHO-K1 cell lines stably expressing non-tagged GPCRs that endogenously signal through cAMP. Hit Hunter® cAMP assays monitored the activation of a GPCR via Gi and Gs secondary messenger signaling in a homogenous, non-imaging assay format using DiscoverX Enzyme Fragment Complementation (EFC) with β-galactosidase as the functional endpoint.
The enzyme was split into two complementary portions: Enzyme Acceptor (EA) and Enzyme Donor (ED). Exogenously introduced ED fused to cAMP (ED-cAMP) competed with endogenously generated cAMP for binding to an anti-cAMP-specific antibody. Active β-galactosidase was formed by complementation of exogenous EA to any unbound ED-cAMP.
Cell lines were expanded from freezer stocks according to standard procedures. Cells were seeded in a total volume of 20 μL into white walled, 384-well microplates and incubated at 37° C. for the appropriate time prior to testing. cAMP modulation was determined using the DiscoverX HitHunter cAMP XS+ assay.
For agonist determination, cells were incubated with sample (in the presence of EC80 forskolin to induce response if measuring Gi secondary messenger signaling). Media was aspirated from cells and replaced with 15 μL 2:1 HBSS/10 mM Hepes:cAMP XS+ Ab reagent. Intermediate dilution of sample stocks was performed to generate 4×sample in assay buffer (optionally containing 4×EC80 forskolin). 5 μL of 4×sample was added to cells and incubated at 37° C. or room temperature for 30 or 60 minutes, as appropriate. Final assay vehicle concentration was 1%.

[5] = biological target: SERT (Homo sapiens (Human), UniProt P31645); test: hSERT release assay in CHO cells ([3H]serotonin); conditions: EC50 SERT (Mean ± SEM, nM), CHO cells expressing hSERT
[6] = biological target: DAT (Homo sapiens (Human), UniProt Q01959); test: hDAT release assay in CHO cells ([3H]dopamine); conditions: EC50 DAT (Mean ± SEM, nM), CHO cells expressing hDAT
[7] = test system: healthy human individual; test: Human effects of non-racemic 5-MAPB, self-reported ratings (Good, Bad, Open); format: in vivo; conditions: averaged from all sessions, 54 mg 5-MAPB HCl oral in two halves
Description: The effects of non-racemic 5-MAPB HCl were tested by a healthy human individual at four different ratios of enantiomers plus the racemate as a control: • 54 mg S and 0 mg R (100% S) • 47 mg Sand 7 mg R (87% S) • 36 mg S and 18 mg R (67% S) • 27 mg S and 27 mg R (50% S) • 7 mg S and 47 mg R (13% S)
Two trials were carried out at each ratio, except for 13% S where only one was conducted. Trials were at least 72 h apart.
5-MAPB HCl was dissolved in 1.5 ml distilled water and consumed in two halves, separated by 1 hour. Starting at 3 hours after administration, tablets of 250 mg ascorbic acid and capsules of 300 mg alpha lipoic acid were taken ad libitum (approximately every hour for a total of 4 administrations).
Measurements were made approximately every 2 hours until post 6 hours and the maximum ratings per session were analyzed. Additionally, an index of good drug effects versus emotional openness, calculated as (Open−Good)/(200, the theoretical maximum of Open+Good), was constructed at each time point and the maximum analyzed. In healthy volunteers, Good Ratings can be considered a predictor of abuse liability. Accordingly, this index can be used as an indicator of the balance of a therapeutic effect (emotional openness) vs abuse liability.
Historic data of two trials 50 mg RS-5-MAPB Cl from the same individual were also included in the analysis for comparison.

[8] = Salt screening experiments (PXRD result); format: physicochemical; conditions: S-5-MAPB Pure Enantiomer (Pattern 1A Enantiomer) + counterion 1:1 molar ratio, 40° C.
[9] = biological target: MAO-A (Homo sapiens (Human), UniProt P21397); test: MAO-A inhibition assay (kynuramine); format: biochemical
MAO-A, sequence (P21397 whole entry, looked up, species assumed): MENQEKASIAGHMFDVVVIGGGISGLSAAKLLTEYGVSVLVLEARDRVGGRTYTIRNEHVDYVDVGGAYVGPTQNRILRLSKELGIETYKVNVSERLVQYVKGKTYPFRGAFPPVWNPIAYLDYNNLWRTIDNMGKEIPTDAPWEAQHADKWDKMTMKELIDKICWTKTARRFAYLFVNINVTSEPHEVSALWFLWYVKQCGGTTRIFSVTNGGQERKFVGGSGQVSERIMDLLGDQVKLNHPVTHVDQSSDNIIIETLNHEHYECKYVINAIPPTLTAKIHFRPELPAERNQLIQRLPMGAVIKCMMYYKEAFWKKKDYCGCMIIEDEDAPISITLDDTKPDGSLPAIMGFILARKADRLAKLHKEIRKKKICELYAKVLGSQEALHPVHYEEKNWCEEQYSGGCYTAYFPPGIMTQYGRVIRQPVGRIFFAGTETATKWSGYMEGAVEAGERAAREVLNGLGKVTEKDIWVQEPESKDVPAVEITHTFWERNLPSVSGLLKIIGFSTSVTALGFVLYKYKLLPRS
Description: MAO-A and test compounds were preincubated at 37° C. for 15 minutes before substrate addition. Test compounds were assayed at 10 concentrations with the highest concentration either 30 or 10 μM and subsequent concentrations using a 0.33 dilution factor. The reaction was initiated by addition of kynuramine and incubated at 37° C. for 30 minutes. The reaction was terminated by addition of NaOH. The amount of 4-hydroquioline formed was determined through spectrofluorimetric readout with the emission detection at 380 nm and excitation wavelength 310 nm.

[10] = read-out: [3H]5-HT release via SERT EC50
[11] = read-out: Inhibition of [3H]5-HT Uptake at SERT IC50
[12] = [3H]5-HT release via SERT EC50 (nM)
[13] = Inhibition of [3H]5-HT Uptake at SERT IC50 (nM)

1-(benzofuran-6-yl)-N-methylbutan-2-amine [Compound R-6-MBPB]
IC50 ([1]; read-out: SERT IC50): 5.7 µM
Ki ([1]; read-out: SERT Ki): 2.6 µM
EC50 [2, 10]: 172 ± 82.2 nM
IC50 [3, 11]: 702 ± 262 nM

1-(benzofuran-6-yl)-N-methylbutan-2-amine [Compound S-6-MBPB]
IC50 ([1]; read-out: SERT IC50): 2.7 µM
Ki ([1]; read-out: SERT Ki): 1.2 µM
EC50 [2, 10]: 54.1 ± 33.9 nM
IC50 [3, 11]: 217 ± 45.8 nM

CNC(C)C(=O)c1ccc2occc2c1 (racemic) [rac-BK-5-MAPB, 1-(benzofuran-5-yl)-2-(methylamino)propan-1-one hydrochloride]
Hill Coef. [4]: 0.91
EC50 ([4]; 5-HT1BR EC50 (μM)): 0.14 µM

CCC(NC)C(=O)c1ccc2occc2c1 (racemic) [rac-BK-5-MBPB, 1-(benzofuran-5-yl)-2-(methylamino)butan-1-one hydrochloride]
Hill Coef. [4]: 1.01
EC50 ([4]; 5-HT1BR EC50 (μM)): 19.6 µM

CNC(C)C(=O)c1ccc2ccoc2c1 (racemic) [rac-BK-6-MAPB, 1-(benzofuran-6-yl)-2-(methylamino)propan-1-one hydrochloride]
Hill Coef. [4]: 0.99
EC50 ([4]; 5-HT1BR EC50 (μM)): 0.537 µM

CCC(NC)C(=O)c1ccc2ccoc2c1 (racemic) [rac-BK-6-MBPB, 1-(benzofuran-6-yl)-2-(methylamino)butan-1-one hydrochloride]
EC50 ([4]; 5-HT1BR EC50 (μM)): > 30 µM

CNC(C)C(=O)c1ccc2occc2c1 (single isomer, unassigned) [Enantiomer 1 BK-5-MAPB, 1-(benzofuran-5-yl)-2-(methylamino) propan-1-one]
EC50 ([4]; 5HT1B Agonist (μM)): 0.08 µM

CNC(C)C(=O)c1ccc2occc2c1 (single isomer, unassigned) [Enantiomer 2 BK-5-MAPB, 1-(benzofuran-5-yl)-2-(methylamino) propan-1-one]
EC50 ([4]; 5HT1B Agonist (μM)): 3.07 µM

CNC(C)C(=O)c1ccc2occc2c1 (single isomer, unassigned; (+)) [(+)-BK-5-MAPB, 1-(benzofuran-5-yl)-2-(methylamino) propan-1-one]
IC50 ([1]; SERT IC50 (μM)): 38 µM
Ki ([1]; SERT Ki (μM)): 17 µM
EC50 [2, 12]: 439 ± 72.5 nM
IC50 [3, 13]: 2090 ± 151 nM
Hill Coef. [4]: 1.05
EC50 ([4]; 5-HT1BR EC50 (μM)): 3.07 µM

CCC(NC)C(=O)c1ccc2occc2c1 (single isomer, unassigned; (+)) [(+)-BK-5-MBPB, 1-(benzofuran-5-yl)-2-(methylamino) butan-1-one]
IC50 ([1]; SERT IC50 (μM)): 6.5 µM
Ki ([1]; SERT Ki (μM)): 3 µM
EC50 ([4]; 5-HT1BR EC50 (μM)): > 30 µM

CNC(C)C(=O)c1ccc2ccoc2c1 (single isomer, unassigned; (+)) [(+)-BK-6-MAPB, 1-(benzofuran-6-yl)-2-(methylamino) propan-1-one]
EC50 [2, 12]: 1280 ± 268 nM
IC50 [3, 13]: 5470 ± 424 nM
EC50 ([4]; 5-HT1BR EC50 (μM)): > 10 µM

CCC(NC)C(=O)c1ccc2ccoc2c1 (single isomer, unassigned; (+)) [(+)-BK-6-MBPB, 1-(benzofuran-6-yl)-2-(methylamino)butan-1-one]
IC50 ([1]; SERT IC50 (μM)): 29 µM
Ki ([1]; SERT Ki (μM)): 13 µM
EC50 ([4]; 5-HT1BR EC50 (μM)): > 30 µM

CNC(C)C(=O)c1ccc2occc2c1 (single isomer, unassigned; (-)) [(−)-BK-5-MAPB, 1-(benzofuran-5-yl)-2-(methylamino) propan-1-one]
IC50 ([1]; SERT IC50 (μM)): 6.9 µM
Ki ([1]; SERT Ki (μM)): 3.2 µM
EC50 [2, 12]: 80 ± 13.7 nM
IC50 [3, 13]: 284 ± 11.9 nM
Hill Coef. [4]: 1.5
EC50 ([4]; 5-HT1BR EC50 (μM)): 0.0777 µM

CCC(NC)C(=O)c1ccc2occc2c1 (single isomer, unassigned; (-)) [(−)-BK-5-MBPB, 1-(benzofuran-5-yl)-2-(methylamino) butan-1-one]
IC50 ([1]; SERT IC50 (μM)): 1.6 µM
Ki ([1]; SERT Ki (μM)): 0.72 µM
Hill Coef. [4]: 1.6241
EC50 ([4]; 5-HT1BR EC50 (μM)): 6.61 µM

CNC(C)C(=O)c1ccc2ccoc2c1 (single isomer, unassigned; (-)) [(−)-BK-6-MAPB, 1-(benzofuran-6-yl)-2-(methylamino) propan-1-one]
IC50 ([1]; SERT IC50 (μM)): 12 µM
Ki ([1]; SERT Ki (μM)): 5.4 µM
EC50 [2, 12]: 72.2 ± 16.6 nM
IC50 [3, 13]: 275 ± 13 nM
Hill Coef. [4]: 0.8339
EC50 ([4]; 5-HT1BR EC50 (μM)): 0.288 µM

CCC(NC)C(=O)c1ccc2ccoc2c1 (single isomer, unassigned; (-)) [(−)-BK-6-MBPB, 1-(benzofuran-6-yl)-2-(methylamino)butan-1-one]
IC50 ([1]; SERT IC50 (μM)): 3.7 µM
Ki ([1]; SERT Ki (μM)): 1.7 µM
Hill Coef. [4]: 1.9551
EC50 ([4]; 5-HT1BR EC50 (μM)): 7.52 µM

CN[C@H](C)Cc1ccc2occc2c1 [75% R-5-MAPB]
EC50 [5]: 122 ± 13 nM
EC50 [6]: 794 ± 182 nM

CN[C@@H](C)Cc1ccc2occc2c1 [100% S-5-MAPB]
Bad ([7]; maximum 0-100 rating of bad drug effects): 1%
Open ([7]; maximum 0-100 rating of emotional openness): 65%
Good ([7]; maximum 0-100 rating of good drug effects): 55%

O=S(=O)(O)O [Compound H2SO4]
PXRD Result ([8]; solvent Acetone): N/A (gel)
PXRD Result ([8]; solvent EtOH:water 90:10): N/A (gel)
PXRD Result ([8]; solvent MeOH:water 90:10): N/A (gel)
PXRD Result ([8]; solvent THF): N/A (gel)

O=P(O)(O)O [Compound H3PO4]
PXRD Result ([8]; solvent MeOH:water 90:10): N/A (gel)

CN[C@@H](C)Cc1ccc2ccoc2c1 [Compound S-6-MAPB, (S)-1-(benzofuran-6-yl)-N-methylpropan-2-amine]
IC50 ([1]; SERT IC50 (μM)): 6.7 µM
IC50 [9]: 5.39 µM
EC50 [2, 12]: 20.6 ± 2.7 nM
IC50 [3, 13]: 90.9 ± 5.9 nM
Hill Coef. [4]: 1.21
EC50 ([4]; 5-HT1BR EC50 (μM)): 0.102 µM
EC50 ([4]; 5HT1B Agonist (μM)): 0.1 µM

O=[N+]([O-])O [HNO3]
PXRD Result ([8]; solvent Acetone): N/A (gel)
PXRD Result ([8]; solvent EtOH:water 90:10): N/A (gel)
PXRD Result ([8]; solvent MeOH:water 90:10): N/A (gel)
PXRD Result ([8]; solvent THF): N/A (gel)

N=C(N)NCCC[C@H](N)C(=O)O [L-Arginine]
PXRD Result ([8]; solvent Acetone): N/A (gel)
PXRD Result ([8]; solvent EtOH:water 90:10): N/A (gel)
PXRD Result ([8]; solvent MeOH:water 90:10): N/A (gel)
PXRD Result ([8]; solvent THF): N/A (gel)

NCCCC[C@H](N)C(=O)O [L-Lysine]
PXRD Result ([8]; solvent Acetone): N/A (gel)
PXRD Result ([8]; solvent EtOH:water 90:10): N/A (gel)
PXRD Result ([8]; solvent MeOH:water 90:10): N/A (gel)
PXRD Result ([8]; solvent THF): L-Lysine

O=C(O)/C=C\C(=O)O [Maleic]
PXRD Result ([8]; solvent Acetone): N/A (gel)
PXRD Result ([8]; solvent EtOH:water 90:10): N/A (gel)
PXRD Result ([8]; solvent MeOH:water 90:10): N/A (gel)
PXRD Result ([8]; solvent THF): N/A (gel)

CS(=O)(=O)O [Methane Sulfonic]
PXRD Result ([8]; solvent Acetone): N/A (gel)
PXRD Result ([8]; solvent EtOH:water 90:10): N/A (gel)
PXRD Result ([8]; solvent MeOH:water 90:10): N/A (gel)
PXRD Result ([8]; solvent THF): N/A (gel)

O=C(O)CCC(=O)O [Succinic]
PXRD Result ([8]; solvent Acetone): N/A (gel)
PXRD Result ([8]; solvent EtOH:water 90:10): N/A (gel)
PXRD Result ([8]; solvent MeOH:water 90:10): N/A (gel)
PXRD Result ([8]; solvent THF): N/A (gel)

Fumaric
PXRD Result ([8]; solvent Acetone): N/A (gel)
PXRD Result ([8]; solvent MeOH:water 90:10): N/A (gel)
PXRD Result ([8]; solvent THF): N/A (gel)
